Data taken from ChEMBL document CHEMBL5260859, “Discovery and structure-activity relationship study of 2-piperazinyl-benzothiazole derivatives as potent and selective PPARδ agonists” (Bioorg Med Chem, 2023).
pEC50: −log10 of the molar value.

Tests used:
[1] = molecular target: T1, Peroxisome proliferator-activated receptor delta (Homo sapiens, UniProt Q03181); assay: Agonist activity at Gal4-fused human PPAR-delta ligand binding domain expressed in CHO-K1 cells assessed as receptor transactivation incubated for 24 to 48 hrs by luciferase reporter gene assay; type: cell-based
T1 sequence (Q03181 whole entry): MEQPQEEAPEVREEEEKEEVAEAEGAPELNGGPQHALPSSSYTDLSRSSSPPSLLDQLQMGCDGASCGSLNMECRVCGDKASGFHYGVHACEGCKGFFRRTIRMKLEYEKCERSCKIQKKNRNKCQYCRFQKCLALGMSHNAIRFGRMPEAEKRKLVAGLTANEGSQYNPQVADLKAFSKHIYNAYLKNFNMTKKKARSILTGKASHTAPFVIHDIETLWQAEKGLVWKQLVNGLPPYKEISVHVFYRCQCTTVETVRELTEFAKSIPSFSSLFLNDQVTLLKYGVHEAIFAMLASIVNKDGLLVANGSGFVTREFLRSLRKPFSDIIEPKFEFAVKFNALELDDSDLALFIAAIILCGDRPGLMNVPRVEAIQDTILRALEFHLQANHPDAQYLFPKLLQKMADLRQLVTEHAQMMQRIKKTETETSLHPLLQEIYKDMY

[2] = molecular target: T2, Peroxisome proliferator-activated receptor delta (Homo sapiens) (UniProt Q03181); assay: Agonist activity at Gal4-fused human PPAR-delta ligand binding domain expressed in CHO-K1 cells assessed as receptor transactivation incubated for 24 to 48 hrs by luciferase reporter gene assay relative to control; type: cell-based; conditions: time lower 24.0 hrs, time upper […]
T2 sequence (whole entry): T1 sequence (Q03181 whole entry)

[3] = molecular target: T3, Peroxisome proliferator-activated receptor alpha (Homo sapiens) (UniProt Q07869); assay: Agonist activity at Gal4-fused human PPAR-alpha ligand binding domain expressed in CHO-K1 cells assessed as receptor transactivation incubated for 24 to 48 hrs by luciferase reporter gene assay relative to control; type: cell-based; conditions: time lower 24.0 hrs, time upper […]
T3 sequence (whole entry): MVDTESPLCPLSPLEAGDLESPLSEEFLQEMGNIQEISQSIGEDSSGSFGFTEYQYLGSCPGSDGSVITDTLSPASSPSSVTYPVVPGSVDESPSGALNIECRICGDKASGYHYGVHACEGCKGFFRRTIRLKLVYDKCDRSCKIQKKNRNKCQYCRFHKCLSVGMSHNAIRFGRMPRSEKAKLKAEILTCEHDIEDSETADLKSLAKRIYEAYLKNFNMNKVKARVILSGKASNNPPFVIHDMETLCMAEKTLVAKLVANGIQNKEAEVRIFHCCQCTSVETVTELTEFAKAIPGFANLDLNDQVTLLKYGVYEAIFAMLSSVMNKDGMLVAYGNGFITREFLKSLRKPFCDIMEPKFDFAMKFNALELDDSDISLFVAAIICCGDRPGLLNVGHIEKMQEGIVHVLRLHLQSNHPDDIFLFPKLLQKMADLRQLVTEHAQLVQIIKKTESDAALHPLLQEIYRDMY

[4] = molecular target: T4, Peroxisome proliferator-activated receptor gamma (Homo sapiens, UniProt P37231); type: cell-based, CHO-K1
T4 sequence (P37231 whole entry): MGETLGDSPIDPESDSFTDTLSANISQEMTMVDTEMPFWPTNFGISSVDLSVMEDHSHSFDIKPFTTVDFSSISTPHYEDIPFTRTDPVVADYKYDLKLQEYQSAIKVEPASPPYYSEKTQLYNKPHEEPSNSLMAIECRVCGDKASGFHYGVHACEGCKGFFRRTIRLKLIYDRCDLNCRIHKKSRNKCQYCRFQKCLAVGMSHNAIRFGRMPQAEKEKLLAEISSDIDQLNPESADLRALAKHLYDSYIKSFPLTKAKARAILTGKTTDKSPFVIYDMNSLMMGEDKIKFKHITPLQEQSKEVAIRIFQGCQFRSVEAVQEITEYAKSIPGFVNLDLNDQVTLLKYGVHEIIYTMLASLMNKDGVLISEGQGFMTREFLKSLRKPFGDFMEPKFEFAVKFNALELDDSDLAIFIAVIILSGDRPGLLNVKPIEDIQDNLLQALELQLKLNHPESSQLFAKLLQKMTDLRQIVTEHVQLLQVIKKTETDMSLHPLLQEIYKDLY

[5] = molecular target: T5, Peroxisome proliferator-activated receptor delta (Mus musculus, UniProt P35396); assay: Agonist activity at Gal4-fused mouse PPAR-delta ligand binding domain expressed in CHO-K1 cells assessed as receptor transactivation incubated for 24 to 48 hrs by luciferase reporter gene assay; type: cell-based
T5 sequence (P35396 whole entry): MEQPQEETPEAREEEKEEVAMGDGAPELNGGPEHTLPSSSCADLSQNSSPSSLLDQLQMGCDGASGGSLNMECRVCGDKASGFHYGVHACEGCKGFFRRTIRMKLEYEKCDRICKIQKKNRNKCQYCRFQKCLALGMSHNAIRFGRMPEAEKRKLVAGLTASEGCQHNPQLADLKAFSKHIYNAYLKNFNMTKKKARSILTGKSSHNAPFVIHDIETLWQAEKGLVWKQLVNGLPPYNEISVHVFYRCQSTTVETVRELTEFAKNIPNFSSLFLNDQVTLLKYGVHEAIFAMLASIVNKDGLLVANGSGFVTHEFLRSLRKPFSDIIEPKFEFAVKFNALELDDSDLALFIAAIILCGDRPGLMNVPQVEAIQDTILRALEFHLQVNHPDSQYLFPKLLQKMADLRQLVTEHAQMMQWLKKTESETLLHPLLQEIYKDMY

[6] = molecular target: T6, Peroxisome proliferator-activated receptor delta (Mus musculus) (UniProt P35396); assay: Agonist activity at Gal4-fused mouse PPAR-delta ligand binding domain expressed in CHO-K1 cells assessed as receptor transactivation incubated for 24 to 48 hrs by luciferase reporter gene assay relative to control; type: cell-based; conditions: time lower 24.0 hrs, time upper […]
T6 sequence (whole entry): T5 sequence (P35396 whole entry)

[7] = molecular target: T7, Peroxisome proliferator-activated receptor alpha (Mus musculus, UniProt P23204); assay: Agonist activity at Gal4-fused mouse PPAR-alpha ligand binding domain expressed in CHO-K1 cells assessed as receptor transactivation incubated for 24 to 48 hrs by luciferase reporter gene assay; type: cell-based
T7 sequence (P23204 whole entry): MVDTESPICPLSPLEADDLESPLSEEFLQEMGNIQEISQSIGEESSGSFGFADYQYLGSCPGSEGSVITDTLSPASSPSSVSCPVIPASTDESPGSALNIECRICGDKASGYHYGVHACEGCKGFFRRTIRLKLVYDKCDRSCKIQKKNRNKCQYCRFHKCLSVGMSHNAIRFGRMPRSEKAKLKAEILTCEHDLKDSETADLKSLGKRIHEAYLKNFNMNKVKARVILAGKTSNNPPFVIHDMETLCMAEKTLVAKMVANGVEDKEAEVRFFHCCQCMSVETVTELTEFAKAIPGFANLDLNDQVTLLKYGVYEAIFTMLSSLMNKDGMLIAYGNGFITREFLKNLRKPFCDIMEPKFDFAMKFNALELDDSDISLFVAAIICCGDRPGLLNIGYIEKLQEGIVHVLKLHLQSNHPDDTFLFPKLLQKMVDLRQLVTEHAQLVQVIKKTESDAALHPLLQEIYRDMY

[8] = molecular target: T8, Peroxisome proliferator-activated receptor alpha (Mus musculus) (UniProt P23204); assay: Agonist activity at Gal4-fused mouse PPAR-alpha ligand binding domain expressed in CHO-K1 cells assessed as receptor transactivation incubated for 24 to 48 hrs by luciferase reporter gene assay relative to control; type: cell-based; conditions: time lower 24.0 hrs, time upper […]
T8 sequence (whole entry): T7 sequence (P23204 whole entry)

Mus musculus [9] = organism: Mus musculus; assay: Selectivity ratio of EC50 for agonist activity at Gal4-fused mouse PPAR-alpha ligand binding domain expressed in CHO-K1 cells to EC50 for agonist activity at Gal4-fused mouse PPAR-delta ligand binding domain expressed in CHO-K1 cells; type: cell-based
[10] = molecular target: T9, Peroxisome proliferator-activated receptor gamma (Mus musculus, UniProt P37238); assay: Agonist activity at Gal4-fused mouse PPAR-gamma ligand binding domain expressed in CHO-K1 cells assessed as receptor transactivation incubated for 24 to 48 hrs by luciferase reporter gene assay; type: cell-based
T9 sequence (P37238 whole entry): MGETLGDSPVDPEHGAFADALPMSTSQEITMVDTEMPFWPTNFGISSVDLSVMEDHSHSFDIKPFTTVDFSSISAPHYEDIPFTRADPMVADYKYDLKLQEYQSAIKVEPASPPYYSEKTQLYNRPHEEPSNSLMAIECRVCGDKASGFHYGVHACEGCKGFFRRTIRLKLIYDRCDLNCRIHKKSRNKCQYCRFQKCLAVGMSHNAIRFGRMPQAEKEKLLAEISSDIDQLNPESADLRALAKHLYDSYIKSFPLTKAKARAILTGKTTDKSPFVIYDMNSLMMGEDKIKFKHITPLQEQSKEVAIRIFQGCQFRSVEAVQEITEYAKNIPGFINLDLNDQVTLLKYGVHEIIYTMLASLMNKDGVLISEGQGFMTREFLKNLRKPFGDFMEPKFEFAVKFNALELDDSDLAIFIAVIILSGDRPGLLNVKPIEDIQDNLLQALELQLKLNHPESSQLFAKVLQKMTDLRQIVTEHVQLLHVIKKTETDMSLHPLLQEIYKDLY

Mus musculus [11] = organism: Mus musculus; assay: Selectivity ratio of EC50 for agonist activity at Gal4-fused mouse PPAR-gamma ligand binding domain expressed in CHO-K1 cells to EC50 for agonist activity at Gal4-fused mouse PPAR-delta ligand binding domain expressed in CHO-K1 cells; type: cell-based
[12] = AUC in rat at 0.5 mg/kg, iv; type: ADME, organism-based; set-up: dose 0.5 mg/kg, route iv; conditions: in vivo
[13] = Clearance in rat at 0.5 mg/kg, iv; type: ADME, organism-based; conditions: in vivo
[14] = Half life in rat at 0.5 mg/kg, iv; type: ADME, organism-based; conditions: in vivo
[15] = AUC in rat at 1 mg/kg, po; type: ADME, organism-based; set-up: dose 1 mg/kg, route po; conditions: in vivo
[16] = Cmax in rat at 1 mg/kg, po; type: ADME, organism-based; set-up: dose 1 mg/kg, route po; conditions: in vivo
[17] = Oral bioavailability in rat at 1 mg/kg; type: ADME, organism-based; conditions: in vivo
Mus musculus [18] = assay: Antihypercholesterolemic activity against hApoB100/hCETP-dTg hypercholesterolemic mouse model assessed as serum HDL-C level at 3 mg/kg, po administered once daily for 8 days; type: functional; conditions: time 8 day
Mus musculus [19] = assay: Antihypercholesterolemic activity against hApoB100/hCETP-dTg hypercholesterolemic mouse model assessed as serum total cholesterol level at 3 mg/kg, po administered once daily for 8 days; type: functional; conditions: time 8 day
Mus musculus [20] = assay: Antihypercholesterolemic activity against hApoB100/hCETP-dTg hypercholesterolemic mouse model assessed as serum non-HDL-C level at 3 mg/kg, po administered once daily for 8 days; type: functional; conditions: time 8 day

| SMILES | pEC50 [1] | Emax [2] [%] | Emax [3] [%] | pEC50 [4] | pEC50 [5] | Emax [6] [%] | pEC50 [7] | Emax [8] [%] | pEC50 [10] | AUC [12] [ng·h/mL] | clearance [13] [mL/min/kg] | half-life [14] [h] | AUC [15] [ng·h/mL] | Cmax [16] [ng/mL] | bioavailability [17] [%] | Ratio EC50 (Mus musculus [9]) | Ratio EC50 (Mus musculus [11]) | Activity (Mus musculus [18]) [%] | Activity (Mus musculus [19]) [%] | Activity (Mus musculus [20]) [%] |
| --- | --- | --- | --- | --- | --- | --- | --- | --- | --- | --- | --- | --- | --- | --- | --- | --- | --- | --- | --- | --- |
| Cc1cc(CC(=O)O)cc(CN2CCN(c3nc4ccc(C(F)(F)F)cc4s3)[C@@H](CC(C)C)C2)c1 | 7.72 | 13.6 | 1.4 | 5.82 | 7.10 | 17.9 | 5.24 | 4.5 |  |  |  |  |  |  |  | 73 |  |  |  |  |
| CC(C)C[C@H]1CN(c2nc3ccc(Cl)cc3s2)CCC1CCOc1cc(CC(=O)O)ccc1Cl (stereo partly specified) | 7.77 | 23.2 | 3.1 | 5.96 | 7.21 | 28.3 |  | 4.6 | 6.18 |  |  |  |  |  |  |  | 11 |  |  |  |
| Cc1cc(CC(=O)O)cc(CN2CCN(c3nc4ccc(C(F)(F)F)cc4s3)[C@@H](C(C)C)C2)c1 | 8.39 | 18.6 |  |  | 7.92 | 25 | 5.70 | 10.3 |  | 26700 | 0.31 | 9.5 | 45900 | 2050 | 85.8 |  |  | 188 | 72 | 56 |

These reach a higher pEC50 [5]. Values come first.

| pEC50 [1] | Emax [2] [%] | Emax [3] [%] | pEC50 [4] | pEC50 [5] | Emax [6] [%] | pEC50 [7] | Emax [8] [%] | pEC50 [10] | AUC [12] [ng·h/mL] | clearance [13] [mL/min/kg] | half-life [14] [h] | AUC [15] [ng·h/mL] | Cmax [16] [ng/mL] | bioavailability [17] [%] | SMILES | Ratio EC50 (Mus musculus [9]) | Ratio EC50 (Mus musculus [11]) | Activity (Mus musculus [18]) [%] | Activity (Mus musculus [19]) [%] | Activity (Mus musculus [20]) [%] |
| --- | --- | --- | --- | --- | --- | --- | --- | --- | --- | --- | --- | --- | --- | --- | --- | --- | --- | --- | --- | --- |
|  |  |  |  | 8.21 | 31.7 | 5.60 | 8 | 6.62 | 399 | 21.5 | 2.7 | 151 | 10 | 18.9 | CC[C@H]1CN(c2nc3ccc(C(F)(F)F)cc3s2)CCN1CCOc1cc(CC(=O)O)ccc1Cl |  |  | 156 | 94 | 82 |
| 8.37 | 17.5 | 1.6 |  | 8.16 | 24.8 |  | 1.4 |  | 5680 | 1.47 | 6.7 | 7140 | 895 | 62.9 | Cc1cc(CC(=O)O)cc(CN2CCN(c3nc4ccc(C(F)(F)F)cc4s3)[C@H](CC(C)C)C2)c1 |  |  | 145 | 83 | 75 |
|  |  |  |  | 8.16 | 34 | 5.57 | 7.2 | 6.62 | 190 | 45.6 | 1.4 | 101 | 11 | 26.4 | C[C@H]1CN(c2nc3ccc(C(F)(F)F)cc3s2)CCN1CCOc1cc(CC(=O)O)ccc1Cl |  |  | 113 | 76 | 80 |
